Data taken from PMC3288891 (2012).

Key:
[1] = molecular target: T1, P180C/E186C PTP1B (protein tyrosine phosphatase 1B) (Homo sapiens, UniProt P18031, E186C/P180C); test: pNPP phosphatase assay with purified enzyme; assay type: biochemical
T1 sequence (P18031 1-435 P180C/E186C): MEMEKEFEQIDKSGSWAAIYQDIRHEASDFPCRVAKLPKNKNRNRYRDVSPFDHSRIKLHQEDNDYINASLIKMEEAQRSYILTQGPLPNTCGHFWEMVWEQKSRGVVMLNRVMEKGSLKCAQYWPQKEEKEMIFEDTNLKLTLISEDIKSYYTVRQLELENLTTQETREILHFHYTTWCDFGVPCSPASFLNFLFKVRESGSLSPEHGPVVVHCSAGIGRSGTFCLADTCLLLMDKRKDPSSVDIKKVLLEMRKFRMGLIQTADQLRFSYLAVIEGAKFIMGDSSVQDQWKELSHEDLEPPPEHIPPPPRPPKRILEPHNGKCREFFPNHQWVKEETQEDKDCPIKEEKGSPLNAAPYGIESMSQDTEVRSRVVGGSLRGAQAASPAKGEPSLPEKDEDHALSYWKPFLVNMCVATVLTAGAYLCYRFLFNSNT

[2] = molecular target: P180C/P185C PTP1B (protein tyrosine phosphatase 1B) (Homo sapiens, UniProt P18031, P180C/P185C); test: biochemical
P180C/P185C PTP1B (protein tyrosine phosphatase 1B), sequence (P18031 1-321 P180C/P185C limits assumed): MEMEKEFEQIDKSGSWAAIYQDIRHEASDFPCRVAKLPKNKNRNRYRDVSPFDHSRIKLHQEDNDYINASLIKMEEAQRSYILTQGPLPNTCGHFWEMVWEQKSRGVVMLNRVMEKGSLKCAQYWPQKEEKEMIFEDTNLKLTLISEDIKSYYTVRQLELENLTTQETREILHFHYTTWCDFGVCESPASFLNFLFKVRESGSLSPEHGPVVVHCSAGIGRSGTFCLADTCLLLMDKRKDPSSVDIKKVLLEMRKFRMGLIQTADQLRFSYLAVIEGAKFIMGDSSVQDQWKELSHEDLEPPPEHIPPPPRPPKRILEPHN

[3] = molecular target: wild-type PTP1B (protein tyrosine phosphatase 1B) (Homo sapiens, UniProt P18031); test: biochemical
wild-type PTP1B (protein tyrosine phosphatase 1B), sequence (P18031 1-321 limits assumed): as the sequence (P18031 1-321 P180C/P185C limits assumed) above, with C180P, C185P counted along it

[4] = molecular target: T1, P180C/E186C PTP1B (protein tyrosine phosphatase 1B); test: biochemical

Row | Km [2] | Km [3] | Km [4] | SMILES | IC50 [1]
1 | – | – | – | O=C1OC2(c3ccccc31)c1ccc(O)c([As]3SCCS3)c1Oc1c2ccc(O)c1[As]1SCCS1 [FlAsH-EDT2, 4′,5′-bis(1,3,2-dithioarsolan-2-yl)fluorescein] | ~130 nM
2 | 2030 ± 250 µM | 2290 ± 210 µM | 980 ± 90 µM | O=[N+]([O-])c1ccc(OP(=O)(O)O)cc1 [para-nitrophenyl phosphate] | –
